Measurements reported in ChEMBL document CHEMBL4270503, “Recent developments in small molecule therapies for renal cell carcinoma” (Eur J Med Chem, 2017).

How the values were obtained:
Homo sapiens [1] = species on record: Homo sapiens; test: Antitumor activity in renal cell carcinoma patient with previous cytokine therapies assessed as progression free survival; type: functional
Homo sapiens [2] = species on record: Homo sapiens; test: Antitumor activity in renal cell carcinoma patient with previous sunitinib treatment assessed as progression free survival; type: functional
Homo sapiens [3] = species on record: Homo sapiens; test: Antitumor activity in patient with metastatic renal cell carcinoma assessed as progression free survival; type: functional
Homo sapiens [4] = species on record: Homo sapiens; test: Antitumor activity in renal cell carcinoma patient without previous VEGFR TKI treatment assessed as progression free survival (reference value: 1.9 months); type: functional
Homo sapiens [5] = species on record: Homo sapiens; test: Antitumor activity in patient with metastatic renal cell carcinoma assessed as overall survival; type: functional
Homo sapiens [6] = species on record: Homo sapiens; test: Antitumor activity in renal cell carcinoma patient with 2 previous VEGFR TKI treatment assessed as progression free survival (reference value: 1.8 months); type: functional
Homo sapiens [7] = species on record: Homo sapiens; test: Antitumor activity in patient with renal cell carcinoma assessed as progression free survival during phase 3 non-inferiority trial; type: functional
CAKI-2 = test: Antitumor activity against human Caki2 cells xenografted in nuded mouse assessed as inhibition of tumor growth at 10 mg/kg, po; type: functional; settings: CAKI-2, po, read-out: TGI
HUVEC [8] = test: cells; settings: Homo sapiens
HUVEC [9] = test: cells; settings: Homo sapiens; remark: listed apart in the source
Homo sapiens [10] = species on record: Homo sapiens; test: Antitumor activity in treatment-naive and cytokine-refractory patient with renal cell carcinoma assessed as progression free survival (reference value: 4.2 months); type: functional
Homo sapiens [11] = species on record: Homo sapiens; test: Antitumor activity in patient with renal cell carcinoma assessed as overall survival during phase 3 non-inferiority trial; type: functional
Homo sapiens [12] = species on record: Homo sapiens; test: Antitumor activity in patient with renal cell carcinoma assessed as overall survival (reference value: 15.2 months); type: functional
Homo sapiens [13] = species on record: Homo sapiens; test: Antitumor activity in patient with renal cell carcinoma assessed as progression free survival (reference value: 2.8 months); type: functional
Homo sapiens [14] = species on record: Homo sapiens; test: Antitumor activity in patient with metastatic renal cell carcinoma assessed as objective response during phase 3 trial; type: functional
Homo sapiens [15] = species on record: Homo sapiens; test: Antitumor activity in patient with metastatic renal cell carcinoma assessed as progression free survival during phase 3 trial; type: functional
Homo sapiens [16] = species on record: Homo sapiens; test: Antitumor activity in patient with metastatic renal cell carcinoma assessed as overall survival during phase 3 trial; type: functional
Homo sapiens [17] = species on record: Homo sapiens; test: Antitumor activity in patient with renal cell carcinoma assessed as progression free survival during phase 2 trial; type: functional
Homo sapiens [18] = species on record: Homo sapiens; test: Antitumor activity in patient with metastatic renal cell carcinoma assessed as progression free survival co-treated with IFNalpha during phase 3 trial; type: functional

**Q.** Which Survival (Homo sapiens [1]) does the source give for `CNC(=O)c1ccccc1Sc1ccc2c(/C=C/c3ccccn3)n[nH]c2c1` [AXITINIB] here?
**A.** 12.1 months

**Q.** And the Survival (Homo sapiens [2])?
**A.** 4.8 months

**Q.** Which Survival (Homo sapiens [3]) does the source give for `COc1cc2nccc(Oc3ccc(NC(=O)C4(C(=O)Nc5ccc(F)cc5)CC4)cc3)c2cc1OC` [CABOZANTINIB] here?
**A.** 7.4 months

**Q.** `CO[C@H]1C[C@@H]2CC[C@@H](C)[C@@](O)(O2)C(=O)C(=O)N2CCCC[C@H]2C(=O)O[C@H]([C@H](C)C[C@@H]2CC[C@@H](OCCO)[C@H](OC)C2)CC(=O)[C@H](C)/C=C(\C)[C@@H](O)[C@@H](OC)C(=O)[C@H](C)C[C@H](C)/C=C/C=C/C=C/1C` [EVEROLIMUS] was tested. Which Survival (Homo sapiens [4]) did it give?
**A.** 5.4 months

**Q.** And the Survival (Homo sapiens [3])?
**A.** 3.9 months

**Q.** And the Survival (Homo sapiens [5])?
**A.** 16.5 months

**Q.** And the Survival (Homo sapiens [6])?
**A.** 4 months

**Q.** How did the Survival (Homo sapiens [7]) turn out when `Cc1ccc(Nc2nccc(N(C)c3ccc4c(C)n(C)nc4c3)n2)cc1S(N)(=O)=O` [PAZOPANIB] was run?
**A.** 8.4 months

**Q.** And the inhibition in vivo at 10 mg/kg (CAKI-2)?
**A.** 77%

**Q.** And the IC50 (HUVEC [8])?
**A.** 720 nM

**Q.** And the IC50 (HUVEC [9])?
**A.** 21 nM

**Q.** What about the Survival (Homo sapiens [10]) of the same molecule?
**A.** 9.2 months

**Q.** What about the Survival (Homo sapiens [11]) of the same molecule?
**A.** 28.3 months

**Q.** With `CNC(=O)c1cc(Oc2ccc(NC(=O)Nc3ccc(Cl)c(C(F)(F)F)c3)cc2)ccn1` [SORAFENIB] as the molecule, how does the Survival (Homo sapiens [12]) read?
**A.** 17.8 months

**Q.** What about the Survival (Homo sapiens [1]) of the same molecule?
**A.** 6.5 months

**Q.** What about the Survival (Homo sapiens [13]) of the same molecule?
**A.** 5.5 months

**Q.** What about the Survival (Homo sapiens [2]) of the same molecule?
**A.** 3.4 months

**Q.** `CCN(CC)CCNC(=O)c1c(C)[nH]c(/C=C2\C(=O)Nc3ccc(F)cc32)c1C` [SUNITINIB] was tested. Which Activity (Homo sapiens [14]) did it give?
**A.** 31%

**Q.** And the Survival (Homo sapiens [15])?
**A.** 11 months

**Q.** What about the Survival (Homo sapiens [16]) of the same molecule?
**A.** 26.4 months

**Q.** What about the Survival (Homo sapiens [11]) of the same molecule?
**A.** 29.1 months

**Q.** And the Survival (Homo sapiens [17])?
**A.** 7.8 months

**Q.** For `CO[C@H]1C[C@@H]2CC[C@@H](C)[C@@](O)(O2)C(=O)C(=O)N2CCCC[C@H]2C(=O)O[C@H]([C@H](C)C[C@@H]2CC[C@@H](OC(=O)C(C)(CO)CO)[C@H](OC)C2)CC(=O)[C@H](C)/C=C(\C)[C@@H](O)[C@@H](OC)C(=O)[C@H](C)C[C@H](C)/C=C/C=C/C=C/1C` [TEMSIROLIMUS], which Survival (Homo sapiens [18]) is on record?
**A.** 8.4 months

**Q.** What about the Survival (Homo sapiens [15]) of the same molecule?
**A.** 10.9 months
